Source: patent publication EP0125615B1, “Schwanniomyces castellii strains and brewing process” (LABATT BREWING COMPANY LIMITED, priority 1983, dated 1984)

Tested on: Schwanniomyces castellii strain ATCC 26077
Assay: Mutagenic treatment, mutants resistant to 2-deoxy-glucose on potato starch agar
Assay type: cell-based, Schwanniomyces castelli
Conditions: EMS treatment
Procedure: The present invention also relates to the production of a novel strain of Schwanniomyces castellii. The mutant strain Schwanniomyces castellii NCYC 1461 was produced by treating a known strain, Schwanniomyces castellii ATCC 26077 with known mutagenic agents. The survivors were cultured on potato starch agar in the presence of concentrations of deoxyglucose at least as high as 10-^3 molar. […] Accordingly, the selection of the mutant strain is particularly desirable in the production of the above-mentioned culture filtrate having amylolytic enzyme activity. By means of such a selection there is a large proportionate increase in the relative amount of alpha-amylase present in the clarified culture filtrate. This novel strain of Schwanniomyces castellii is available upon request from the Yeast Collection of the National Collection of Yeast Cultures Depository ("NCYC"), Food Research Institute, Norwich, Norfolk, England. The ascession number of that organism in the above-mentioned repository is NCYC 1461. Schwanniomyces castellii strain NCYC 1461 is one of a number of mutant strains of Schwanniomyces castellii that .were produced by way of the above-outlined mutagenic treatment of Schwanniomyces castellii strain ATCC 26077. The particulars of the mutagenic treatments are detailed below in Table III which indicates the time of exposure, the percent survival rate, and the frequency of mutation for both of the treatments employed.

Q: For `CCOS(C)(=O)=O` [EMS], which “% Survival” value (time of exposure 30 min) is on record?
A: 66%

Q: What about the Frequency of mutation (time of exposure 30 min) of the same compound?
A: 10^-3

Q: And the “% Survival” value (time of exposure 60 min)?
A: 14%

Q: What about the Frequency of mutation (time of exposure 60 min) of the same compound?
A: 2×10^-4
